The source of these data is the supplement of paper PMC9265050, “Inhibition of RNA Binding in SND1 Increases the Levels of miR-1-3p and Sensitizes Cancer Cells to Navitoclax” (Cancers, 2022).

The test system of the assay is SW480. The assay can be described thus: drug sensitivity score (DSS, integrated dose-response area); higher = more sensitive (stronger viability reduction); extreme values may be limits of the assay. In a few lines:
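The drug sensitivity score is the integrated area under a fitted non-linear dose–response model. It was derived from SW480 cells with doxycycline-inducible control or SND1-targeting shRNA, induced with 0.1 µg/mL doxycycline for 7 days and plated at 1000 cells per well on 384-well plates of 525 commercially available small-molecule inhibitors at five concentrations. CellTiter-Glo measured viability after 72 h.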

[1] abbreviates: shRNA: SND1 shRNA1 (SND1 silenced).
Setting [2] is: shRNA: SND1 shRNA2 (SND1 silenced).
Where [3] appears, read: shRNA: control shRNA (non-targeting).

SMILES strings stand for the structures.

In turn, `CC[C@]1(O)C[C@H]2CN(CCc3c([nH]c4ccccc34)[C@@](C(=O)OC)(c3cc4c(cc3OC)N(C=O)[C@H]3[C@@](O)(C(=O)OC)[C@H](OC(C)=O)[C@]5(CC)C=CCN6CC[C@]43[C@@H]65)C2)C1` [Vincristine] yielded a drug sensitivity score under setting [1] of 10.1 DSS, a drug sensitivity score under setting [2] of 9.7 DSS and a drug sensitivity score under setting [3] of 16.6 DSS.

For the compound `CCC1=C[C@@H]2CN(C1)Cc1c([nH]c3ccccc13)[C@@](C(=O)OC)(c1cc3c(cc1OC)N(C)[C@H]1[C@@](O)(C(=O)OC)[C@H](OC(C)=O)[C@]4(CC)C=CCN5CC[C@]31[C@@H]54)C2` [Vinorelbine], the drug sensitivity score worked out at 19.3 DSS under setting [1], 19.5 DSS under setting [2] and 22.4 DSS under setting [3].

In the case of `CS(=O)(=O)c1ccc(C(=O)Nc2ccc(Cl)c(-c3ccccn3)c2)c(Cl)c1` [Vismodegib], the drug sensitivity score reads like this: under setting [1], 0 DSS; under setting [2], 0 DSS; under setting [3], 0 DSS.

In the case of `CC[C@@H]1C(=O)N(C)c2cnc(Nc3ccc(C(=O)N[C@H]4CC[C@H](N5CCN(CC6CC6)CC5)CC4)cc3OC)nc2N1C(C)C` [Volasertib], the drug sensitivity score runs as follows: under setting [1], 13.1 DSS; under setting [2], 14.4 DSS; under setting [3], 14.8 DSS.

For the compound `O=C(CCCCCCC(=O)Nc1ccccc1)NO` [Vorinostat], the drug sensitivity score reads like this: under setting [1], 7.8 DSS; under setting [2], 8 DSS; under setting [3], 9.3 DSS.

Consider `CCn1c(=O)c(-c2cc[nH]n2)cc2c(C)nc(N)nc21` [Voxtalisib], for which the drug sensitivity score was 7.4 DSS under setting [1], 6.5 DSS under setting [2] and 5.7 DSS under setting [3].

On to `Oc1nc(-c2ccc(C(F)(F)F)cc2)nc2c1CSCC2` [XAV-939], for which the drug sensitivity score came out at 3.9 DSS under setting [1], 0 DSS under setting [2] and 3.2 DSS under setting [3].

For the compound `O=C(Nc1ccc(-c2ccnc(Nc3ccc(N4CCOCC4)cc3)n2)cc1)C1CCCN1` (stereo not given) [XL019], the drug sensitivity score by setting is: under setting [1], 0.1 DSS; under setting [3], 1.7 DSS.

`COc1cc2c(Nc3ccc(Cl)c(Cl)c3F)ncnc2cc1OC[C@@H]1C[C@@H]2CN(C)C[C@@H]2C1` [XL-647]: the drug sensitivity score was 2.1 DSS under setting [1], 3.1 DSS under setting [2] and 2.4 DSS under setting [3].

On to `COCC[n+]1c2c(n(Cc3cnccn3)c1C)C(=O)c1ccccc1C2=O` [YM155], for which the drug sensitivity score reads like this: under setting [1], 15.5 DSS; under setting [2], 8.8 DSS; under setting [3], 21.4 DSS.

As to `FC(F)c1nc2ccccc2n1-c1nc(N2CCOCC2)nc(N2CCOCC2)n1` [ZSTK474], the drug sensitivity score by setting is: under setting [1], 7.3 DSS; under setting [2], 5.1 DSS; under setting [3], 4 DSS.

Take `c1ccc(Cn2c(-c3ccc(OC[C@H](C4CCNCC4)n4c(-c5ccccc5)nc5ccccc54)cc3)nc3ccccc32)cc1` [deltarasin]: the drug sensitivity score was 5.7 DSS under setting [1], 6.6 DSS under setting [2] and 4.4 DSS under setting [3].
